From patent publication US4156731A, “Heterocyclic oxime compounds and carbamoyloxime derivatives” (priority 1976, dated 1979)

Key:
Format in all cases: in vivo
Design in all cases: key: A: Excellent control; B: Partial control; C: No control
[1] = test system: bean aphid (Aphis fabae Scop.); test: Bean Aphid Foliage Spray Test; conditions: 500 ppm foliage spray, 24 hour holding period
Procedure: (§1) Selected species of the new compounds were evaluated to determine their pesticidal activity against mites and certain insects, including anaphid, a caterpillar, a beetle and a fly.
(§2) Suspensions of the test compounds were prepared by dissolving one gram of compound in 50 milliliters of acetone in which had been dissolved 0.1 gram (10 percent of the weight of compound) of an alkylphenoxy polyethoxyethanol surfactant, as an emulsifying or dispersing agent. The resulting solution was mixed into 150 milliliters of water to give roughly 200 milliliters of a suspension containing the compound in finely divided form. The thus-prepared stock suspension contained 0.5 percent by weight of test compound. The test concentrations in parts per million by weight employed in the tests described hereinbelow were obtained by appropriate dilutions of the stock suspension with water. The test procedures were as follows:
Bean Aphid Foliage Spray Test
Adults and nymphal stages of the bean aphid (Aphis fabae Scop.) reared on potted dwarf nasturtium plants at 65°-70° F. and 50-70 per cent relative humidity, constituted the test insects. For testing purposes, the number of aphids per pot was standardized to 100-150 by trimming plants containing excess aphids.
The test compounds were formulated by diluting the stock suspension with water to give a suspension containing 500 parts of test compound per million parts of final formulation.
The potted plants (one pot per compound tested) infested with 100-150 aphids, were placed on a revolving turntable and sprayed with 100-110 milliliters of test compound formulation by use of a DeVilbiss spray gun set at 40 psig. air pressure. This application, which lasted 25 seconds, was sufficient to wet the plants to run-off. As a control, 100-110 milliliters of a water-acetone-emulsifier solution containing no test compound were also sprayed on infested plants. After spraying, the pots were placed on their sides on a sheet of white standard mimeograph paper which had been previously ruled to facilitate counting. Temperature and humidity in the test room during the 24 hour holding period were 65°-70° F. and 50-70 per cent, respectively. Aphids which fell into the paper and were unable to remain standing after being uprighted were considered dead. Aphids remaining on the plants wre observed closely for movement and those which were unable to move the length of the body upon stimulator by prodding were considered dead. Per cent mortality was recorded for various concentration levels.
(§3) In these tests the pesticidal activity of the compounds against aphid, mite, Southern Armyworm, Mexican Bean Beetle, and house fly was rated as follows: […]

[2] = test system: southern armyworm (Prodenia Eridania, (Cram.)); test: Southern Armyworm Leaf Spray Test; conditions: larvae, 500 ppm leaf spray, three days
Procedure: as §1, §2
Southern Armyworm Leaf Spray Test
Larvae of the southern armyworm (Prodenia Eridania, (Cram.), reared on Tendergreen bean plants at a temperature of 80°±5° F. and a relative humidity of 50±5 per cent, constituted the test insects.
The test compounds were formulated by diluting the stock suspension with water to give a suspension containing 500 parts of test compound per million parts of final formulation. Potted Tendergreen bean plants of standard height and age were placed on a revolving turntable and sprayed with […] of test compound formulation by use of a DeVilbiss spray gun set at 10 psig. air pressure.
This application, which lasted 25 seconds, was sufficient to wet plants to run-off. As a control, 100-110 milliliters of a water-acetone-emulsifier solution containing no test compound were also sprayed on infested plants. When dry, the paired leaves were separated and each one was placed in a 9 centimeter Petric dish lined with moistened filter paper. Five randomly selected larvae were introduced into each dish and the dishes were closed. The closed dishes were labeled and held at 80°-85° F. for three days. Although the larvae could easily consume the whole leaf within twenty-four hours, no more food was added. Larvae which were unable to move the length of the body, even upon stimulation by prodding, were considered dead. Per cent mortality was recorded for various concentration levels.
as §3

[3] = test system: house flies (Musca domestica, L.); test: Fly Bait Test; conditions: adults, 500 ppm in sugar bait, twenty four hours
Procedure: as §1, §2
Four to six day old adult house flies (Musca domestica, L.) reared according to the specifications of the Chemical Specialities Manufacturing Association (Blue Book, McNair-Dorland Co., NY., 1954; pages 234-244, 261) under controlled conditions of 80°±5° F. and 50±5 per cent relative humidity, were the test insects. The flies were immobilized by anesthetizing with carbon dioxide and twenty five immobilized individuals, males and females, were transferred to a cage consisting of a standard food stainer about five inches in diameter which was inverted over a wrapping-paper-covered surface. The test compounds were formulated by diluting the stock suspension with a 10 per cent (by weight) sugar solution to give a suspension containing 500 parts of test compound per million parts of final formulation, by weight. Ten milliliters of the test formulation were added to a souffle cup containing a one inch square of an absorbent cotton pad. This bait cup was introduced and centered on the blotting paper under the food strainer prior to admitting the anesthetized flies. The caged flies were allowed to feed on the bait for twenty four hours, at a temperature of 80°±5° F. and the relative humidity of 50±5 per cent.
as §3

[4] = test system: Mexican bean beetle (Epilachna varivestis, Muls.); test: Mexican Bean Beetle Leaf Spray Test; conditions: fourth instar larvae, 500 ppm leaf spray, three days
Procedure: as §1, §2
Mexican Bean Beetle Leaf Spray Test
Fourth instar larvae of the Mexican bean beetle (Epilachna varivestis, Muls.), reared on Tendergreen bean plants at a temperature of 80°±5° F. and 50±5 per cent relative humidity, were the test insects.
The test compounds were formulated by diluting the stock suspension with water to give a suspension containing 500 parts of test compound per million parts of final formulation. Potted Tendergreen bean plants of standard height and age were placed on a revolving turntable and sprayed with 100-110 milliliters of test compound formulation by use of DeVilbiss spray gun set at 10 psig air pressure. This application, which lasted 25 seconds, was sufficient to wet plants to run-off. As a control, 100-110 milliliters of a water-acetone-emulsifier solution containing no test compound were also sprayed on infested plants. When dry, the paired leaves were separated and each was placed in a 9 centimeter Petri dish lined with moistened filter paper. Five randomly selected larvae were introduced into each dish, and the dishes were closed. The closed dishes were labeled and held at a temperature of […]. for three days. Although the larvae could easily consume the leaf within 24 to 48 hours, no more food was added. Larvae which were unable to move the length of the body, even upon stimulation, were considered dead.
as §3

[5] = test system: two spotted mite (Tetranychus urticae Koch); test: Mite Foliage Spray Test; conditions: 500 ppm foliage spray, six days
Procedure: as §1, §2
Adults and nymphal stages of the two spotted mite (Tetranychus urticae Koch), reared on Tendergreen bean plants at 80±5 per cent relative humidity, were the test organisms. Infested leaves from a stock culture were placed on the primary leaves of two bean plants six to eight inches in height, growing in a two-and-a-half inch clay pot. 150-200 mites, a sufficient number for testing, transferred from the excised leaves to the fresh plants in a period of twenty four hours. Following the twenty four hour transfer period, the excised leaves were removed from the infested plants. The test compounds were formulated by diluting the stock suspension with water to give a suspension with water to give a suspension containing 500 parts of test compound per million parts of final formulation. The potted plants (one pot per compound) were placed on a revolving turntable and sprayed with 100-110 milliliters of test compound formulation by use of a DeVilbiss spray gun set at 40 psig. air pressure. This application, which lasted for 25 seconds, was sufficient to wet the plants to run-off. As a control, 100-110 milliliters of a water solution containing acetone and emulsifier in the same concentrations as the test compound formulation, but containing no test compound, were also sprayed on infested plants. The sprayed plants were held at 80±5 per cent relative humidity for six days, after which a mortality count of motile forms were made. Microscopic examination for motile forms was made on the leaves of the test plants. Any individual which was capable of locomotion upon prodding, was considered living.
as §3

| SMILES | Bean Aphid pesticidal activity rating [1] | Southern Armyworm pesticidal activity rating [2] | House-Fly pesticidal activity rating [3] | Mexican Bean Beetle pesticidal activity rating [4] | Mite pesticidal activity rating [5] |
| --- | --- | --- | --- | --- | --- |
| Cc1ccc(S(=O)(=O)N=C2SC(=NOC(=O)N(C)SC(Cl)(Cl)Cl)C(C)(C)S2)cc1 [LX] | C | B | B | B | C |
| CN(Sc1ccc(C(C)(C)C)cc1)C(=O)ON=C1SC(=C(C#N)C#N)SC1(C)C [LXXIII] | A | C | C | A | B |
| CN(C)C(=O)ON=C1SC(=C(C#N)C#N)SC1(C)C [XLIII, 5,5-Dimethyl-2-(dicyanomethylidene)-4-[O-(N,N-dimethylcarbamoyl)oximino]-1,3-dithiolane] | B | C | B | B | C |
| CNC(=O)ON=C1SC(=C(C#N)C#N)SC1(C)C [LXII] | C | C | C | C | C |
| CC(C)C(=O)C(C)(C)SSN(C)C(=O)ON=C1SC(=C(C#N)C#N)SC1(C)C [LXXV] | A | B | C | B | A |
| CN=C1SC(=NOC(=O)NC)C(C)(C)S1 [XL, 5,5-Dimethyl-2-methylimino-4-[O-(N-methylcarbamoyl)oximino]-1,3-dithiolane] | A | B | A | A | A |
| CNC(=O)ON=C1SC(=C(C#N)c2ccccc2)SC1(C)C [LXVI] | C | C | C | B | C |
| CNC(=O)ON=C1SC(=C[N+](=O)[O-])SC1(C)C [LXVII] | B | A | A | A | C |
| CNC(=O)ON=C1SC(=NS(=O)(=O)c2ccc(C)cc2)SC1(C)C [LIX] | C | C | C | C | C |
| CNC(=O)ON=C1SC(=S)SC1(C)C [LXXI] | A | B | B | A | B |
| CN=C1SC(=NOC(=O)N(C)SN(C)C(=O)ON=C2SC(=NC)SC2(C)C)C(C)(C)S1 [LXXVIII] | A | A | A | A | A |
| CCN=C1SC(=NOC(=O)N(C)SC(Cl)(Cl)Cl)C(C)(C)S1 [XLI, 5,5-Dimethyl-2-ethylimino-4-[[O-[N-methyl-N-(trichloromethanesulfenyl)carbamoyl]oximino]]-1,3-dithiolane] | A | B | A | A | A |
| CCCCN=C1SC(=NOC(=O)NC)C(C)(C)S1 [LII] | A | B | A | A | C |
